Laboratory results as given in patent US20250340863A1, “POLYPEPTIDE-ENCODED LIBRARY AND SCREENING METHOD USING SAME” (WHOLESOME FUTURE LIMITED, priority 2022, published 2025).

Molecular target: T1, HDAC6 (Homo sapiens, UniProt Q9UBN7)
T1 construct: made in house; host or cells: E. coli BL21 (DE3), pET-28a plasmid
T1 sequence (Q9UBN7 1-1215): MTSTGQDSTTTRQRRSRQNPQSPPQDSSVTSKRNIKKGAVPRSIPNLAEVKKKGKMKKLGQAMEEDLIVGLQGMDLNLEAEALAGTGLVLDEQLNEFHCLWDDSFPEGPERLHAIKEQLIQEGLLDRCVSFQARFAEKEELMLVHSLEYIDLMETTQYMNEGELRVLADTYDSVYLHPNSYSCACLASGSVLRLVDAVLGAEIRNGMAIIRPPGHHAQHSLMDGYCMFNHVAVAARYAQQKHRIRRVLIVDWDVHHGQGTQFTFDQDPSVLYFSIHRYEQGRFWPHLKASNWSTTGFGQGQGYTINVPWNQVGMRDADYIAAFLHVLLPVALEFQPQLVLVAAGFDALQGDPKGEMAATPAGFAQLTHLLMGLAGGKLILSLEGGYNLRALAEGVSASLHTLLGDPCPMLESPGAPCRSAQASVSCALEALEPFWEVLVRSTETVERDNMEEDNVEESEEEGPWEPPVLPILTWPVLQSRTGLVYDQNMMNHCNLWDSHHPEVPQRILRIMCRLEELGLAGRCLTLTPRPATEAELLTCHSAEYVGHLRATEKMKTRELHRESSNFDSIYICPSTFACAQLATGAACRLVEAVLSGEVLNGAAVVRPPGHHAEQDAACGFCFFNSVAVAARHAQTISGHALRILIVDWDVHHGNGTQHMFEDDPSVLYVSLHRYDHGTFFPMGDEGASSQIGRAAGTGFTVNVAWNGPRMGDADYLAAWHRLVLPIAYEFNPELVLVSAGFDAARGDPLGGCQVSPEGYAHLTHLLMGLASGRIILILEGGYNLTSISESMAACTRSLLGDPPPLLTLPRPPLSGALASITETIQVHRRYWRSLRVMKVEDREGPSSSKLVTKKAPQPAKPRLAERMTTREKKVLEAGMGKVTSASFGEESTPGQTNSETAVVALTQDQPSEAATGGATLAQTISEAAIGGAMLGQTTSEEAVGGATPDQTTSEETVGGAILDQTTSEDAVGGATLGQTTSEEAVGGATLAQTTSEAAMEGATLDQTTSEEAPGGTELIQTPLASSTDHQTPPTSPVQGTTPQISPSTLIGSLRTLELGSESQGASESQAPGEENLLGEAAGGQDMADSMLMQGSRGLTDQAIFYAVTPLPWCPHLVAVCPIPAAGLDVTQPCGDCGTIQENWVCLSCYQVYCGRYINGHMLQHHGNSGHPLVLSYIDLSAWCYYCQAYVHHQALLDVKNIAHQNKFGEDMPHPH
Assay: HDAC6 enzyme inhibition, fluorescence assay
Format: biochemical
Conditions: for IC50: 7 concentrations, 4-fold dilution from 250 nM, 4 hours substrate incubation at room temperature; for Hill Slope: Hill slope of fitted dose-effect curve (GraphPad Prism); for Emax: top of fitted dose-effect curve of inhibition rate (GraphPad Prism)
Method: The compounds to be tested were balanced to room temperature, and the compounds were diluted 4 times with DMSO in a 384-well plate, with a starting working concentration of 250 nM and a total of 7 concentration gradients. 250 nl of the diluted drug solution was transferred to the 384-well reaction plate using Echo 550, where 250 nl of DMSO was transferred to the control wells Max and Min wells: the HDAC6 enzyme stock solution was diluted to 1.67× with 1× enzyme reaction system buffer solution; the reaction substrate was diluted to 2.5× with 1× enzyme reaction system buffer solution: 15 μl of the above diluted enzyme working solution was added to each reaction well, and 15 μl of 1× enzyme reaction system buffer solution was added to the Min well. Incubate at room temperature for 15 min; add 10 μl of the above-diluted enzyme reaction substrate to each reaction well and incubate at room temperature for 4 hours to allow the reaction to proceed fully; add 3.5×Trypsin reaction stop solution to each reaction well and incubate at 37° C. for 90 min to terminate the reaction; read the fluorescence signal at the end of the reaction on the microplate reader.
The calculation formula for the inhibition rate of the compound on HDAC6 is as follows:
Where […] is the mean of the detection values of the sample wells of each Max well (only DMSO and enzyme); […] represents the average value of the detection values of each Min well (without enzyme); Sample Signal is the mean of the detection values of each compound-treated well. The dose-effect curve was fitted using GraphPad Prism software, and the IC50 of the compound on enzyme inhibition was calculated (as shown in Table 5).

SMILES	IC50 [nM]	Hill Slope	Emax [%]
O=C(OCC1CCCCC1)c1ccc(COC(=O)C2COC(O)CN2C(=O)C(=O)c2cc3ccccc3[nH]2)nc1 (stereo not drawn) [Compound 1]	0.63	1.2	96
O=C(OCc1ccccn1)C1CCC(COC(=O)C2C[Se]C(O)CN2S(=O)(=O)c2ccccc2)CC1 (stereo not drawn) [Compound 2]	0.85	1.1	99
Cc1ccccc1S(=O)(=O)N1CC(O)CCC1C(=O)OCCc1cnccc1C(=O)OCc1ccncc1 (stereo not drawn) [Compound 4]	13.3	1.06	91.4
Cc1ccc(C(=O)C(=O)N2CC(O)SCC2C(=O)OCc2cc(C(=O)OCc3cccc(Br)c3)ccn2)cc1 (stereo not drawn) [Compound 6]	0.75	1.1	100
O=C(C(=O)N1CC(O)OCC1C(=O)OCCC1CCCCC1C(=O)OCc1ccc(Cl)cc1)c1ccccn1 (stereo not drawn) [Compound 7]	0.85	0.9	102
Cc1ccccc1C(=O)C(=O)N1CC(O)OCC1C(=O)OCc1ccccc1C(=O)OCc1ccccc1Cl (stereo not drawn) [Compound 8]	2.9	1.5	101
Cc1ccc(S(=O)(=O)N2CC(O)CCC2C(=O)OCc2ccc(C(=O)OCc3ccccc3Cl)cn2)cc1 (stereo not drawn) [Compound 9]	19.4	0.8205	96.4
Cc1ccc(S(=O)(=O)N2CC(O)CCC2C(=O)OCCc2cccc(C(=O)OCc3ccccc3Cl)c2)cc1 (stereo not drawn) [Compound 10]	1.5	0.8	98
O=C(C(=O)N1CC(O)CCC1C(=O)OCCC1CCCCC1C(=O)OCc1cccc(Br)c1)c1cc2ccccc2[nH]1 (stereo not drawn) [Compound 11]	0.23	1	100
COc1ccc(COC(=O)c2ccc(CCOC(=O)C3C[Se]C(O)CN3C(=O)C(=O)c3ccncc3)nc2)cc1 (stereo not drawn) [Compound 12]	0.41	1.1	101
O=C(C(=O)N1CC(O)CCC1C(=O)OCCc1ccccc1C(=O)OCCc1ccccc1)c1ccccn1 (stereo not drawn) [Compound 13]	2.2	1.6	98
O=C(OCC1CCCCC1)c1ccnc(CCOC(=O)C2C[Se]C(O)CN2C(=O)C(=O)c2cccc3ccccc23)c1 (stereo not drawn) [Compound 14]	132	0.8	100
O=C(OCC1CCCCC1)c1ccc(COC(=O)C2CCC(O)CN2C(=O)C(=O)c2cccc3ccccc23)nc1 (stereo not drawn) [Compound 15]	5.99	0.8638	106
CC(COC(=O)c1cccc(COC(=O)C2COC(O)CN2C(=O)C(=O)C2=Cc3ccccc3C2)c1)c1ccccc1 (stereo not drawn) [Compound 16]	3.9	1	99
COc1cccc(COC(=O)c2cccc(CCOC(=O)C3CCC(O)CN3C(=O)C(=O)C3=Cc4ccccc4C3)c2)c1 (stereo not drawn) [Compound 17]	0.58	1.1	102
O=C(OCc1ccncc1)c1ccnc(CCOC(=O)C2CSC(O)CN2C(=O)C(=O)c2ccccn2)c1 (stereo not drawn) [Compound 18]	0.92	1	102
O=C(C(=O)N1CC(O)SCC1C(=O)OCCC1CCCCC1C(=O)OCc1ccccn1)c1cc2ccccc2[nH]1 (stereo not drawn) [Compound 19]	2.6	1.6	96
O=C(OCc1ccccc1Cl)c1ccnc(CCOC(=O)C2CCC(O)CN2C(=O)C(=O)c2ccccn2)c1 (stereo not drawn) [Compound 20]	53.8	0.83	99.3
